Data set [1] has as its system mouse L cells. The experiment in a line: Reversal of Cytotoxic Activity on mouse L cells.
Data set [2] has as its system MCF-7 breast adenocarcinoma. The experiment in a line: Cytotoxicity Assay, MCF-7 (MTT dye reduction assay). It is filed as cell-based. Particulars: 72 hours. How it is done: Cells and Medium: MCF-7 breast adenocarcinoma, obtained from the American Type Culture Collection (ATCC) is grown in RPMI 1640 medium supplemented with 10 nM calcium leucovorin instead of folic acid as the folate source, 10% dialyzed fetal calf serum, penicillin, streptomycin and sodium pyruvate (110 μg/ml).
Cytotoxicity Assay: Cells are seeded into 96 well plates using a Perkin Elmer Pro/pette. MCF-7 cells are seeded at 15,000 cells per well in 150 μl of medium. Prior to the addition of drugs, cultures were incubated for 24 hours at 37°. Compounds were added at 2× concentration in 150 μl of medium and each concentration was assayed in triplicate. Cultures were incubated for 72 hours in a 37° humidified incubator at 5% CO2. Inhibition of cell growth was measured using the MTT dye reduction assay.
MTT Dye Reduction Assay: Cell dilutions for a standard curve were prepared from a 72 hour log-phase culture. Serial dilutions were seeded in triplicate in 96 well plates and incubated at 37° for 1 hour. MTT (3-(4,5-dimethylthiazol-2-yl)-2,5-diphenyltetrazolium bromide) was dissolved in phosphate buffered saline at 5 mg/ml and sonicated for 30 seconds. Using the Perkin Elmer Pro/pette, 200 μl of medium was removed and 100 μl of MTT added to the wells of the standard curve and test plates. Suspension cultures were spun for 5 minutes at 1000 rpm before removing medium from the wells. Plates were incubated for 1 hour at 37° on a platform shaker. Following this incubation, 100 μl of medium was removed from the wells and 100 μl of DMSO added to each well. The plates were sonicated for approximately 10 seconds to solubilize the precipitated formazan dye. The absorbance of each well was measured using a Titertek Multiskan MC microtiter plate reader at 570 nm with a reference wavelength of 750 nm.
Background: Tetrazolium assays rely on reduction of a dye to a coloured formazan, in cell work by metabolically active cells.

A further data set has as its system Spiroplasma citri. As to the kind of experiment: Activity Against Spiroplasma citri, Sensitivity Test. It is filed as cell-based. Particulars: in words. How it is done: Frozen broth cultures are diluted to a predetermined titre of 100 color changing units for the test. Organisms are grown in Difco PPLO broth base with added serum, glucose, phenol red, ampicillin, thallium acetate and yeast extract. Incubation is at 32° C. Incubation with varying levels of the test compound in the above medium are performed in well plates and an amount of Spiroplasma citri cells is added that will produce a color change by a fixed time of growth. The lowest concentration of compound that fails to produce a color change or gives a two day delay in color change indicates minimum inhibitory concentration.

The test system of the next data set is Lactobacillus casei. The experiment in a line: Activity against Lactobacillus casei. It is filed as cell-based. As to conditions: in words.
The subject of a further data set is Streptococcus faecium. The experiment in a line: Activity against Streptococcus faecium. It is filed as cell-based. Particulars: in words.
A further data set relates to yellow fever virus. Particulars: in words.
Data set [3] is described as follows: Stability on extended exposure to light. It is filed as physicochemical. As to conditions: white powder.
For data set [4], the system named is mouse L cells.

Where two headings read alike, the source gives them in different places.

Turning to `NC(=O)c1ncn([C@@H]2O[C@H](COP(=O)(O)O)[C@@H](O)[C@H]2O)c1N` [AICAR, 5-aminoimidazole-4-carboxamide ribonucleotide], the “reversal of the cytotoxicity of the compound of Example 3” value (“reversal … of Example 3” below) with mouse L cells [1] was “able to reverse the cytotoxicity of the compound of Example 3”.

In the case of `Nc1nc(N)c(CCCNc2ccc(C(=O)N[C@@H](CCC(=O)O)C(=O)O)cc2)c(=O)[nH]1` [Example 1, N-[4-[3-(2,4-diamino-1,6-dihydro-6-oxo-5-pyrimidinyl)propylamino]benzoyl]-L-glutamic acid], in data set [2], the “inhibiting the growth of MCF-7 cells” value was “active in inhibiting the growth of MCF-7 cells”. Besides, the “activity against Spiroplasma citri” value with Spiroplasma citri is “activity against the mycoplasma, Spiroplasma citri”. In the data set with Lactobacillus casei, the “activity against Lactobacillus casei” value is “possess activity against certain bacterial organisms”. For the same molecule, the “activity against Streptococcus faecium” value in the data set on Streptococcus faecium was “possess activity against certain bacterial organisms”. In the data set with yellow fever virus, the “activity against yellow fever virus” value was “some activity against yellow fever virus”.

In the case of `CN(CCCc1c(N)nc(N)[nH]c1=O)c1ccc(C(=O)N[C@@H](CCC(=O)O)C(=O)O)cc1` [Example 2, N-[4-[3-(2,4-diamino-1,6-dihydro-6-oxo-5-pyrimidinyl)-N-methylpropylamino]benzoyl]-L-glutamic acid], the “inhibiting the growth of MCF-7 cells” value in data set [2] is “active in inhibiting the growth of MCF-7 cells”. In the data set on Spiroplasma citri, the “activity against Spiroplasma citri” value is reported as “activity against the mycoplasma, Spiroplasma citri”.

With `Nc1nc(N)c(CCCN(C=O)c2ccc(C(=O)N[C@@H](CCC(=O)O)C(=O)O)cc2)c(=O)[nH]1` [Example 3, N-[4-[3-(2,4-Diamino-1,6-dihydro-6-oxo-5-pyrimidinyl)-N-formylpropylamino]benzoyl]-L-glutamic acid], the “inhibiting the growth of MCF-7 cells” value in data set [2] was “active in inhibiting the growth of MCF-7 cells”. Also, in the data set on Spiroplasma citri, the “activity against Spiroplasma citri” value is recorded as “activity against the mycoplasma, Spiroplasma citri”. The “activity against yellow fever virus” value in the data set on yellow fever virus is given as “some activity against yellow fever virus”.

Turning to `CN(CCc1c(N)nc(N)[nH]c1=O)c1ccc(C(=O)N[C@@H](CCC(=O)O)C(=O)O)cc1` [Example 5, N-[4-[2-(2,4-diamino-1,6-dihydro-6-oxo-5-pyrimidinyl)ethyl-N-methylamino]benzoyl]-L-glutamic acid], the “appearance upon extended exposure to light” value in data set [3] is listed as “became tan upon extended exposure to light”.

As to `Nc1nc2c(c(=O)[nH]1)N(C=O)C(CNc1ccc(C(=O)N[C@@H](CCC(=O)O)C(=O)O)cc1)CN2` (stereo partly shown) [calcium leucovorin], in the data set with mouse L cells [4], the “reversal of the cytotoxicity of the compound of Example 1” value is listed as “able to reverse the cytotoxicity of the compound of Example 1” and the “reversal … of Example 3” value was “able to reverse the cytotoxicity of the compound of Example 3”.

`O=c1[nH]cnc2nc[nH]c12` [hypoxanthine]: in the data set with mouse L cells [4], the “reversal of the cytotoxicity of the compound of Example 1” value is reported as “able to reverse the cytotoxicity of the compound of Example 1” and the “reversal … of Example 3” value is given as “able to reverse the cytotoxicity of the compound of Example 3”.

Values taken from US4940713A, “Substituted glutamic acids” (Burroughs Wellcome Co., priority 1988, dated 1990).
